Data reported in the NIST ThermoML archive (doi:10.1016/j.fluid.2018.04.024).
± gives the expanded uncertainty stated by the source.

Conditions: Liquid, Vibrating tube method

CCCCCCCC(=O)OC [methyl octanoate]
mass density [kg/m3]
Conditions | 293.15 K | 303.15 K | 313.15 K | 323.15 K | 333.15 K | 343.15 K | 353.15 K | 363.15 K
100 kPa | 876.9 ± 0.9 | 867.63 ± 0.89 | 859.3 ± 0.89 | 850.11 ± 0.88 | 841.41 ± 0.87 | 832.2 ± 0.86 | 823.55 ± 0.85 | 814.86 ± 0.84
1000 kPa | 877.02 ± 0.9 | 868.42 ± 0.9 | 859.59 ± 0.89 | 850.91 ± 0.88 | 842.13 ± 0.87 | 833.32 ± 0.86 | 824.37 ± 0.85 | 815.91 ± 0.85
3000 kPa | 878.65 ± 0.91 | 869.93 ± 0.9 | 861.28 ± 0.89 | 852.59 ± 0.88 | 844.08 ± 0.88 | 835.25 ± 0.87 | 826.59 ± 0.86 | 818.18 ± 0.85
5000 kPa | 879.78 ± 0.91 | 871.47 ± 0.9 | 862.89 ± 0.9 | 854.3 ± 0.89 | 845.82 ± 0.88 | 837.24 ± 0.87 | 828.51 ± 0.86 | 820.31 ± 0.86
10000 kPa | 883.45 ± 0.92 | 875.12 ± 0.91 | 866.8 ± 0.91 | 858.46 ± 0.9 | 850.11 ± 0.89 | 841.71 ± 0.88 | 833.34 ± 0.88 | 825.1 ± 0.87
15000 kPa | 886.82 ± 0.93 | 878.71 ± 0.92 | 870.52 ± 0.92 | 862.36 ± 0.91 | 854.18 ± 0.9 | 846.06 ± 0.9 | 838.05 ± 0.89 | 830.33 ± 0.89
20000 kPa | 890.07 ± 0.94 | 882.04 ± 0.93 | 874.1 ± 0.92 | 866.24 ± 0.92 | 858.22 ± 0.91 | 850.39 ± 0.91 | 842.32 ± 0.9 | 834.62 ± 0.9
25000 kPa | 893.28 ± 0.94 | 885.35 ± 0.94 | 877.59 ± 0.93 | 869.67 ± 0.93 | 862.06 ± 0.92 | 854.17 ± 0.92 | 846.49 ± 0.92 | 838.84 ± 0.91
30000 kPa | 896.35 ± 0.95 | 888.57 ± 0.95 | 880.87 ± 0.94 | 873.15 ± 0.94 | 865.57 ± 0.94 | 858.07 ± 0.93 | 850.48 ± 0.93 | 843.09 ± 0.93
35000 kPa | 899.25 ± 0.96 | 891.59 ± 0.96 | 884.11 ± 0.95 | 876.46 ± 0.95 | 869.05 ± 0.95 | 861.81 ± 0.94 | 854.32 ± 0.94 | 847.13 ± 0.94
40000 kPa | 902.05 ± 0.97 | 894.49 ± 0.96 | 887.04 ± 0.96 | 879.75 ± 0.96 | 872.61 ± 0.96 | 865.19 ± 0.95 | 857.88 ± 0.95 | 851.06 ± 0.95
50000 kPa | 907.81 ± 0.98 | 900.27 ± 0.98 | 893.07 ± 0.98 | 885.93 ± 0.98 | 878.98 ± 0.98 | 872.01 ± 0.98 | 864.82 ± 0.98 | 858.24 ± 0.98
60000 kPa | 912.62 ± 0.99 | 905.64 ± 0.99 | 898.5 ± 0.99 | 891.84 ± 0.99 | 884.95 ± 1 | 877.98 ± 1 | 871.35 ± 1 | 865.07 ± 1

CCCCC(=O)OC [methyl pentanoate]
mass density [kg/m3]
Conditions | 293.15 K | 303.15 K | 313.15 K | 323.15 K | 333.15 K | 343.15 K | 353.15 K | 363.15 K
100 kPa | 890.18 ± 0.92 | 879.57 ± 0.91 | 869.49 ± 0.9 | 858.83 ± 0.89 | 848.52 ± 0.88 | 837.8 ± 0.87 | 827.35 ± 0.86 | 816.63 ± 0.85
1000 kPa | 890.39 ± 0.92 | 880.52 ± 0.91 | 869.89 ± 0.9 | 859.81 ± 0.89 | 849.45 ± 0.88 | 839.04 ± 0.87 | 828.43 ± 0.86 | 817.89 ± 0.85
3000 kPa | 892.23 ± 0.92 | 882.29 ± 0.91 | 871.87 ± 0.9 | 861.81 ± 0.89 | 851.71 ± 0.88 | 841.41 ± 0.87 | 831.13 ± 0.86 | 820.7 ± 0.86
5000 kPa | 893.59 ± 0.92 | 884.05 ± 0.91 | 873.76 ± 0.91 | 863.85 ± 0.9 | 853.79 ± 0.89 | 843.76 ± 0.88 | 833.48 ± 0.87 | 823.32 ± 0.86
10000 kPa | 897.77 ± 0.93 | 888.3 ± 0.92 | 878.33 ± 0.92 | 868.67 ± 0.91 | 858.86 ± 0.9 | 849.05 ± 0.89 | 839.27 ± 0.88 | 829.23 ± 0.88
15000 kPa | 901.59 ± 0.94 | 892.37 ± 0.93 | 882.44 ± 0.92 | 873.18 ± 0.92 | 863.66 ± 0.91 | 854.23 ± 0.9 | 844.84 ± 0.9 | 835.46 ± 0.89
20000 kPa | 905.28 ± 0.95 | 896.14 ± 0.94 | 886.62 ± 0.93 | 877.67 ± 0.93 | 868.26 ± 0.92 | 859.25 ± 0.91 | 849.86 ± 0.91 | 840.59 ± 0.9
25000 kPa | 908.91 ± 0.95 | 899.89 ± 0.95 | 890.61 ± 0.94 | 881.64 ± 0.94 | 872.72 ± 0.93 | 863.69 ± 0.93 | 854.79 ± 0.92 | 845.61 ± 0.92
30000 kPa | 912.4 ± 0.96 | 903.55 ± 0.96 | 894.38 ± 0.95 | 885.65 ± 0.95 | 876.79 ± 0.94 | 868.17 ± 0.94 | 859.45 ± 0.93 | 850.57 ± 0.93
35000 kPa | 915.63 ± 0.97 | 906.97 ± 0.96 | 898.09 ± 0.96 | 889.44 ± 0.96 | 880.79 ± 0.95 | 872.41 ± 0.95 | 863.9 ± 0.94 | 855.31 ± 0.94
40000 kPa | 918.78 ± 0.97 | 910.27 ± 0.97 | 901.45 ± 0.97 | 893.13 ± 0.96 | 884.78 ± 0.96 | 876.28 ± 0.96 | 868 ± 0.96 | 859.8 ± 0.95
50000 kPa | 925.12 ± 0.99 | 916.73 ± 0.98 | 908.24 ± 0.98 | 900.12 ± 0.98 | 892.02 ± 0.98 | 884.03 ± 0.98 | 875.94 ± 0.98 | 868.09 ± 0.98
60000 kPa | 930.63 ± 1 | 922.74 ± 1 | 914.32 ± 1 | 906.77 ± 0.99 | 898.8 ± 0.99 | 890.84 ± 0.99 | 883.37 ± 1 | 875.9 ± 1

CCCCCCC(=O)OC [methyl heptanoate]
mass density [kg/m3]
Conditions | 293.15 K | 303.15 K | 313.15 K | 323.15 K | 333.15 K | 343.15 K | 353.15 K | 363.15 K
100 kPa | 880.16 ± 0.91 | 870.66 ± 0.9 | 861.82 ± 0.89 | 852.25 ± 0.88 | 843.03 ± 0.87 | 833.48 ± 0.86 | 824.35 ± 0.85 | 815.19 ± 0.84
1000 kPa | 880.29 ± 0.91 | 871.46 ± 0.9 | 862.16 ± 0.89 | 853.12 ± 0.88 | 843.81 ± 0.87 | 834.64 ± 0.86 | 825.27 ± 0.86 | 816.36 ± 0.85
3000 kPa | 881.98 ± 0.91 | 873.07 ± 0.9 | 863.9 ± 0.89 | 854.89 ± 0.89 | 845.84 ± 0.88 | 836.7 ± 0.87 | 827.61 ± 0.86 | 818.75 ± 0.85
5000 kPa | 883.19 ± 0.91 | 874.66 ± 0.91 | 865.62 ± 0.9 | 856.64 ± 0.89 | 847.68 ± 0.88 | 838.79 ± 0.87 | 829.66 ± 0.87 | 821 ± 0.86
10000 kPa | 886.99 ± 0.92 | 878.5 ± 0.92 | 869.71 ± 0.91 | 860.97 ± 0.9 | 852.16 ± 0.89 | 843.47 ± 0.89 | 834.76 ± 0.88 | 826.14 ± 0.87
15000 kPa | 890.49 ± 0.93 | 882.18 ± 0.92 | 873.55 ± 0.92 | 865.07 ± 0.91 | 856.43 ± 0.9 | 848.02 ± 0.9 | 839.63 ± 0.89 | 831.57 ± 0.89
20000 kPa | 893.86 ± 0.94 | 885.64 ± 0.93 | 877.29 ± 0.93 | 869.08 ± 0.92 | 860.63 ± 0.92 | 852.59 ± 0.91 | 844.11 ± 0.9 | 836.11 ± 0.9
25000 kPa | 897.18 ± 0.95 | 889.08 ± 0.94 | 880.89 ± 0.94 | 872.69 ± 0.93 | 864.64 ± 0.93 | 856.55 ± 0.92 | 848.48 ± 0.92 | 840.56 ± 0.91
30000 kPa | 900.36 ± 0.95 | 892.3 ± 0.95 | 884.32 ± 0.95 | 876.31 ± 0.94 | 868.31 ± 0.94 | 860.57 ± 0.93 | 852.65 ± 0.93 | 845.01 ± 0.93
35000 kPa | 903.34 ± 0.96 | 895.46 ± 0.96 | 887.66 ± 0.95 | 879.74 ± 0.95 | 871.91 ± 0.95 | 864.43 ± 0.94 | 856.65 ± 0.94 | 849.23 ± 0.94
40000 kPa | 906.22 ± 0.97 | 898.49 ± 0.97 | 890.73 ± 0.96 | 883.15 ± 0.96 | 875.61 ± 0.96 | 867.96 ± 0.96 | 860.37 ± 0.95 | 853.33 ± 0.95
50000 kPa | 912.14 ± 0.98 | 904.43 ± 0.98 | 896.98 ± 0.98 | 889.53 ± 0.98 | 882.2 ± 0.98 | 875 ± 0.98 | 867.57 ± 0.98 | 860.82 ± 0.98
60000 kPa | 917.16 ± 1 | 909.95 ± 0.99 | 902.59 ± 0.99 | 895.63 ± 0.99 | 888.39 ± 1 | 881.19 ± 1 | 874.32 ± 1 | 867.91 ± 1
